Assay results reported in patent US4181797A, “1-N-(ω-amino-α-hydroxyalkanoyl) derivatives of 4'-deoxy-6'-N-methylkanamycin A” (Bristol-Myers Company, priority 1978, dated 1980).
Converted amounts (≈) assume the structure as drawn. Where two headings read alike, the source gives them in different places.

Experiments:
E. cloacae A20364 = assay: MIC in Mueller-Hinton agar, APH(3')-I producer; assay type: cell-based; settings: Enterobacter cloacae
Method: (§1) The Minimum Inhibitory Concentrations (MIC's) of BB-K311, amikacin and kanamycin A were determined in Mueller-Hinton agar against a number of kanamycin-sensitive and kanamycin-resistant strains of organisms.

E. coli A20363 = assay: MIC in Mueller-Hinton agar, APH(3')-I producer; assay type: cell-based; settings: Escherichia coli
Method: as §1

P. Morganii A20031 = assay: MIC in Mueller-Hinton agar, kanamycin-sensitive strain; assay type: cell-based; settings: Morganella morganii
Method: as §1

P. stuartii A20615 = assay: as above; assay type: cell-based; settings: Providencia stuartii
Method: as §1

E. coli A9632 = assay: as above; assay type: cell-based; settings: Escherichia coli
Method: as §1

P. mirabilis A9900 = assay: as above; assay type: cell-based; settings: Proteus mirabilis
Method: as §1

S. marcescens A20019 = assay: as above; assay type: cell-based; settings: Serratia marcescens
Method: as §1

B. brevis ATCC8185 = assay: as above; assay type: cell-based; settings: Brevibacillus brevis
Method: as §1

P. vulgaris A9526 = assay: as above; assay type: cell-based; settings: Proteus vulgaris
Method: as §1

E. cloacae A20464 = assay: as above; assay type: cell-based; settings: Enterobacter cloacae
Method: as §1

K. pneumoniae A15130 = assay: as above; assay type: cell-based; settings: Klebsiella pneumoniae
Method: as §1

S. aureus Smith = assay: as above; assay type: cell-based; settings: Staphylococcus aureus
Method: as §1

S. epidermidis A22033 = assay: MIC in Mueller-Hinton agar, ANT(4')-producing strain; assay type: cell-based; settings: Staphylococcus epidermidis
Method: as §1

B. brevis IFO 12334 = assay: as above; assay type: cell-based; settings: Brevibacillus brevis, IFO12334
Method: as §1

S. aureus A22054 = assay: as above; assay type: cell-based; settings: Staphylococcus aureus
Method: as §1

[1] = tested on: strains which phosphorylate the 3'-hydroxy group; settings: background statement; cited from earlier work
E. cloacae A21006 = assay: MIC in Mueller-Hinton agar, APH(3')-II producer; assay type: cell-based; settings: Enterobacter cloacae
Method: as §1

E. coli A20107 = assay: MIC in Mueller-Hinton agar, APH(3')-II producer; assay type: cell-based; settings: Escherichia coli
Method: as §1

E. coli A20732 = assay: MIC in Mueller-Hinton agar, ANT(2") producer; assay type: cell-based; settings: Escherichia coli
Method: as §1

E. coli A20895 = assay: MIC in Mueller-Hinton agar, AAC(3)-I producer; assay type: cell-based; settings: Escherichia coli
Method: as §1

E. coli A2128 = assay: MIC in Mueller-Hinton agar, AAC(6')-producing strain; assay type: cell-based; settings: Escherichia coli
Method: as §1

S. marcescens A21226 = assay: as above; assay type: cell-based; settings: Serratia marcescens
Method: as §1

S. marcescens A22382 = assay: as above; assay type: cell-based; settings: Serratia marcescens
Method: as §1

S. epidermidis A22211 = assay: as above; assay type: cell-based; settings: Staphylococcus epidermidis
Method: as §1

P. aeruginosa GN315 = assay: as above; assay type: cell-based; settings: Pseudomonas aeruginosa
Method: as §1

E. cloacae HM-43 = assay: as above; assay type: cell-based; settings: Enterobacter cloacae, HM43
Method: as §1

P. rettgeri HM-56 = assay: as above; assay type: cell-based; settings: Providencia rettgeri, HM56
Method: as §1

P. aeruginosa GN4925 = assay: as above; assay type: cell-based; settings: Pseudomonas aeruginosa
Method: as §1

S. marcescens A21235 = assay: as above; assay type: cell-based; settings: Serratia marcescens
Method: as §1

S. aureus A22153 = assay: as above; assay type: cell-based; settings: Staphylococcus aureus
Method: as §1

S. aureus A22421 = assay: as above; assay type: cell-based; settings: Staphylococcus aureus
Method: as §1

S. marcescens A22288 = assay: as above; assay type: cell-based; settings: Serratia marcescens
Method: as §1

S. epidermidis A22152 = assay: as above; assay type: cell-based; settings: Staphylococcus epidermidis
Method: as §1

[2] = tested on: aminoglycoside-sensitive and aminoglycoside-resistant strains; assay: Antibacterial spectrum, Table 1 strains; assay type: cell-based; settings: strains of Table 1, compared with amikacin
Method: as §1

[3] = tested on: AAC(6')-producing and ANT(4')-producing strains; assay: Average activity relative to amikacin, Table 2 strains; assay type: cell-based; settings: AAC(6')-producing and ANT(4')-producing strains of Table 2
Method: as §1

[4] = tested on: resistant strains which contain 6'-N-acetylating enzymes; settings: background statement; cited from earlier work

SMILES: NC[C@H]1O[C@H](O[C@H]2[C@H](O)[C@@H](O[C@H]3O[C@H](CO)[C@@H](O)[C@H](N)[C@H]3O)[C@H](N)C[C@@H]2N)[C@H](O)[C@@H](O)[C@@H]1O [Kanamycin A, kanamycin A]
- MIC (E. cloacae A20364; A20364): 100 µg/mL (≈ 206 µM)
- MIC (E. coli A20363; A20363): 100 µg/mL (≈ 206 µM)
- MIC (P. Morganii A20031): 3.1 µg/mL (≈ 6.4 µM)
- MIC (P. stuartii A20615; A20615): 1.6 µg/mL (≈ 3.3 µM)
- MIC (E. coli A9632; A9632): 1.6 µg/mL (≈ 3.3 µM)
- MIC (P. mirabilis A9900; A9900): 1.6 µg/mL (≈ 3.3 µM)
- MIC (S. marcescens A20019; A20019): 1.6 µg/mL (≈ 3.3 µM)
- MIC (B. brevis ATCC8185; ATCC8185): 1.6 µg/mL (≈ 3.3 µM)
- MIC (P. vulgaris A9526; A9526): 0.8 µg/mL (≈ 1.65 µM)
- MIC (E. cloacae A20464; A20464): 6.3 µg/mL (≈ 13 µM)
- MIC (K. pneumoniae A15130; A15130): 1.6 µg/mL (≈ 3.3 µM)
- MIC (S. aureus Smith): 0.8 µg/mL (≈ 1.65 µM)
- MIC (S. epidermidis A22033; A22033): 50 µg/mL (≈ 103 µM)
- MIC (B. brevis IFO 12334): > 100 µg/mL
- MIC (S. aureus A22054; A22054): > 100 µg/mL
- activity against 3'-hydroxy phosphorylating strains [1]: certain strains of Gram-negative bacteria are resistant to kanamycin A
- MIC (E. cloacae A21006; A21006): 100 µg/mL (≈ 206 µM)
- MIC (E. coli A20107; A20107): 100 µg/mL (≈ 206 µM)
- MIC (E. coli A20732; A20732): 25 µg/mL (≈ 51.6 µM)
- MIC (E. coli A20895; A20895): 1.6 µg/mL (≈ 3.3 µM)
- MIC (E. coli A2128; A2128): 100 µg/mL (≈ 206 µM)
- MIC (S. marcescens A21226; A21226): 12.5 µg/mL (≈ 25.8 µM)
- MIC (S. marcescens A22382; A22382): 25 µg/mL (≈ 51.6 µM)
- MIC (S. epidermidis A22211; A22211): > 100 µg/mL
- MIC (P. aeruginosa GN315; GN315): > 100 µg/mL
- MIC (E. cloacae HM-43): > 100 µg/mL
- MIC (P. rettgeri HM-56): > 100 µg/mL
- MIC (P. aeruginosa GN4925; GN4925): 100 µg/mL (≈ 206 µM)
- MIC (S. marcescens A21235; A21235): 50 µg/mL (≈ 103 µM)
- MIC (S. aureus A22153; A22153): > 100 µg/mL
- MIC (S. aureus A22421; A22421): > 100 µg/mL
- MIC (S. marcescens A22288; A22288): > 100 µg/mL
- MIC (S. epidermidis A22152; A22152): > 100 µg/mL

SMILES: CNC[C@@H]1C[C@H](O)[C@@H](O)[C@@H](O[C@H]2[C@H](O)[C@@H](O[C@H]3O[C@H](CO)[C@@H](O)[C@H](N)[C@H]3O)[C@H](NC(=O)[C@@H](O)CCN)C[C@@H]2N)O1 [BB-K311, 1-N-[L-(-)-γ-amino-α-hydroxybutyryl]-4'-deoxy-6'-N-methylkanamycin A]
- MIC (E. cloacae A20364; E. cloacae A20364, enzyme produced: APH(3')-I, Mueller-Hinton agar, read-out: MIC): 6.3 µg/mL (≈ 10.8 µM)
- MIC (E. coli A20363; E. coli A20363, enzyme produced: APH(3')-I, Mueller-Hinton agar, read-out: MIC): 3.1 µg/mL (≈ 5.31 µM)
- MIC (P. Morganii A20031; P. Morganii A20031, enzyme produced: none, Mueller-Hinton agar, read-out: MIC): 6.3 µg/mL (≈ 10.8 µM)
- MIC (P. stuartii A20615; P. stuartii A20615, enzyme produced: none, Mueller-Hinton agar, read-out: MIC): 3.1 µg/mL (≈ 5.31 µM)
- MIC (E. coli A9632; E. coli A9632, enzyme produced: none, Mueller-Hinton agar, read-out: MIC): 1.6 µg/mL (≈ 2.74 µM)
- MIC (P. mirabilis A9900; P. mirabilis A9900, enzyme produced: none, Mueller-Hinton agar, read-out: MIC): 6.3 µg/mL (≈ 10.8 µM)
- MIC (S. marcescens A20019; S. marcescens A20019, enzyme produced: none, Mueller-Hinton agar, read-out: MIC): 1.6 µg/mL (≈ 2.74 µM)
- MIC (B. brevis ATCC8185; B. brevis ATCC8185, enzyme produced: none, Mueller-Hinton agar, read-out: MIC): 1.6 µg/mL (≈ 2.74 µM)
- MIC (P. vulgaris A9526; P. vulgaris A9526, enzyme produced: none, Mueller-Hinton agar, read-out: MIC): 0.8 µg/mL (≈ 1.37 µM)
- MIC (E. cloacae A20464; E. cloacae A20464, enzyme produced: none, Mueller-Hinton agar, read-out: MIC): 3.1 µg/mL (≈ 5.31 µM)
- MIC (K. pneumoniae A15130; K. pneumoniae A15130, enzyme produced: none, Mueller-Hinton agar, read-out: MIC): 1.6 µg/mL (≈ 2.74 µM)
- MIC (S. aureus Smith; S. aureus Smith, enzyme produced: none, Mueller-Hinton agar, read-out: MIC): 1.6 µg/mL (≈ 2.74 µM)
- MIC (S. epidermidis A22033; S. epidermidis A22033, ANT(4')-producing, Mueller-Hinton agar, read-out: MIC): 1.6 µg/mL (≈ 2.74 µM)
- MIC (B. brevis IFO 12334; B. brevis IFO 12334, ANT(4')-producing, Mueller-Hinton agar, read-out: MIC): 3.1 µg/mL (≈ 5.31 µM)
- MIC (S. aureus A22054; S. aureus A22054, ANT(4')-producing, Mueller-Hinton agar, read-out: MIC): 3.1 µg/mL (≈ 5.31 µM)
- MIC (E. cloacae A21006; E. cloacae A21006, enzyme produced: APH(3')-II, Mueller-Hinton agar, read-out: MIC): 3.1 µg/mL (≈ 5.31 µM)
- MIC (E. coli A20107; E. coli A20107, enzyme produced: APH(3')-II, Mueller-Hinton agar, read-out: MIC): 6.3 µg/mL (≈ 10.8 µM)
- antibacterial spectrum [2]: antibacterial spectrum similar to amikacin
- MIC (E. coli A20732; E. coli A20732, enzyme produced: ANT(2"), Mueller-Hinton agar, read-out: MIC): 1.6 µg/mL (≈ 2.74 µM)
- MIC (E. coli A20895; E. coli A20895, enzyme produced: AAC(3)-I, Mueller-Hinton agar, read-out: MIC): 3.1 µg/mL (≈ 5.31 µM)
- activity relative to amikacin, on the average [3]: twice as active as amikacin
- MIC (E. coli A2128; E. coli A2128, AAC(6')-producing, Mueller-Hinton agar, read-out: MIC): 3.1 µg/mL (≈ 5.31 µM)
- MIC (S. marcescens A21226; S. marcescens A21226, AAC(6')-producing, Mueller-Hinton agar, read-out: MIC): 3.1 µg/mL (≈ 5.31 µM)
- MIC (S. marcescens A22382; S. marcescens A22382, AAC(6')-producing, Mueller-Hinton agar, read-out: MIC): 6.3 µg/mL (≈ 10.8 µM)
- MIC (S. epidermidis A22211; S. epidermidis A22211, AAC(6')-producing, Mueller-Hinton agar, read-out: MIC): 12.5 µg/mL (≈ 21.4 µM)
- MIC (P. aeruginosa GN315; P. aeruginosa GN315, AAC(6')-producing, Mueller-Hinton agar, read-out: MIC): 25 µg/mL (≈ 42.8 µM)
- MIC (E. cloacae HM-43; E. cloacae HM-43, AAC(6')-producing, Mueller-Hinton agar, read-out: MIC): 3.1 µg/mL (≈ 5.31 µM)
- MIC (P. rettgeri HM-56; P. rettgeri HM-56, AAC(6')-producing, Mueller-Hinton agar, read-out: MIC): 12.5 µg/mL (≈ 21.4 µM)
- MIC (P. aeruginosa GN4925; P. aeruginosa GN4925, AAC(6')-producing, Mueller-Hinton agar, read-out: MIC): 12.5 µg/mL (≈ 21.4 µM)
- MIC (S. marcescens A21235; S. marcescens A21235, AAC(6')-producing, Mueller-Hinton agar, read-out: MIC): 12.5 µg/mL (≈ 21.4 µM)
- MIC (S. aureus A22153; S. aureus A22153, AAC(6')-producing, Mueller-Hinton agar, read-out: MIC): 12.5 µg/mL (≈ 21.4 µM)
- MIC (S. aureus A22421; S. aureus A22421, AAC(6')-producing, Mueller-Hinton agar, read-out: MIC): 12.5 µg/mL (≈ 21.4 µM)
- MIC (S. marcescens A22288; S. marcescens A22288, AAC(6')-producing, Mueller-Hinton agar, read-out: MIC): 3.1 µg/mL (≈ 5.31 µM)
- MIC (S. epidermidis A22152; S. epidermidis A22152, AAC(6')-producing, Mueller-Hinton agar, read-out: MIC): 3.1 µg/mL (≈ 5.31 µM)

SMILES: NCC1OC(OC2C(N)CC(N)C(OC3OC(CO)C(O)C(N)C3O)C2O)C(O)CC1O (stereo not drawn) [3'-deoxykanamycin]
- activity against 3'-hydroxy phosphorylating strains [1]: active against strains which phosphorylate the 3'-hydroxy group
- activity against strains with 6'-N-acetylating enzymes [4]: inactivated by other resistant strains
